Measurements as given in ChEMBL document CHEMBL2380212, “Synthesis, single crystal and antitumor activities of benzimidazole-quinazoline hybrids” (Bioorg Med Chem Lett, 2013).

Experiments:
OVCAR-5 = assay: Cytotoxicity against human OVCAR5 cells at 10 uM after 48 hrs by SRB assay; type: functional; conditions: OVCAR-5, 48 h, read-out: GI
M14 = assay: Cytotoxicity against human M14 cells at 10 uM after 48 hrs by SRB assay; type: functional; conditions: M14, 48 h, read-out: GI
A549 = assay: Cytotoxicity against human A549 cells at 10 uM after 48 hrs by SRB assay; type: functional; conditions: A549, 48 h, read-out: GI
Hs-578T = assay: Cytotoxicity against human Hs578T cells at 10 uM after 48 hrs by SRB assay; type: functional; conditions: read-out: GI
SW-620 = assay: Cytotoxicity against human SW620 cells at 10 uM after 48 hrs by SRB assay; type: functional; conditions: SW-620, 48 h, read-out: GI
OVCAR-3 = assay: Cytotoxicity against human OVCAR3 cells at 10 uM after 48 hrs by SRB assay; type: functional; conditions: OVCAR-3, 48 h, read-out: GI
HCT-116 = assay: Cytotoxicity against human HCT116 cells at 10 uM after 48 hrs by SRB assay; type: functional; conditions: HCT-116, 48 h, read-out: GI
HL-60(TB) = assay: Cytotoxicity against human HL-60(TB) cells at 10 uM after 48 hrs by SRB assay; type: functional; conditions: HL-60, 48 h, read-out: GI
NCI-H522 = assay: Cytotoxicity against human NCI-H522 cells at 10 uM after 48 hrs by SRB assay; type: functional; conditions: NCI-H522, 48 h, read-out: GI
COLO 205 = assay: Cytotoxicity against human COLO205 cells at 10 uM after 48 hrs by SRB assay; type: functional; conditions: COLO 205, 48 h, read-out: GI
SNB-19 = assay: Cytotoxicity against human SNB19 cells at 10 uM after 48 hrs by SRB assay; type: functional; conditions: SNB-19, 48 h, read-out: GI
SK-MEL-28 = assay: Cytotoxicity against human SK-MEL-28 cells at 10 uM after 48 hrs by SRB assay; type: functional; conditions: SK-MEL-28, 48 h, read-out: GI
UACC-62 = assay: Cytotoxicity against human UACC62 cells at 10 uM after 48 hrs by SRB assay; type: functional; conditions: UACC-62, 48 h, read-out: GI
MDA-MB-231 = assay: Cytotoxicity against human MDA-MB-231 cells at 10 uM after 48 hrs by SRB assay; type: functional; conditions: MDA-MB-231, 48 h, read-out: GI
SN12C = assay: Cytotoxicity against human SN12C cells at 10 uM after 48 hrs by SRB assay; type: functional; conditions: read-out: GI
UO-31 = assay: Cytotoxicity against human UO31 cells at 10 uM after 48 hrs by SRB assay; type: functional; conditions: UO-31, 48 h, read-out: GI
TK-10 = assay: Cytotoxicity against human TK10 cells at 10 uM after 48 hrs by SRB assay; type: functional; conditions: TK-10, 48 h, read-out: GI
CAKI-1 = assay: Cytotoxicity against human Caki1 cells at 10 uM after 48 hrs by SRB assay; type: functional; conditions: CAKI-1, 48 h, read-out: GI
NCI-H322M = assay: Cytotoxicity against human NCI-H322M cells at 10 uM after 48 hrs by SRB assay; type: functional; conditions: read-out: GI
HOP-92 = assay: Cytotoxicity against human HOP92 cells at 10 uM after 48 hrs by SRB assay; type: functional; conditions: HOP-92, 48 h, read-out: GI
HCT-15 = assay: Cytotoxicity against human HCT15 cells at 10 uM after 48 hrs by SRB assay; type: functional; conditions: HCT-15, 48 h, read-out: GI
ACHN = assay: Cytotoxicity against human ACHN cells at 10 uM after 48 hrs by SRB assay; type: functional; conditions: read-out: GI
SF-295 = assay: Cytotoxicity against human SF295 cells at 10 uM after 48 hrs by SRB assay; type: functional; conditions: SF-295, 48 h, read-out: GI
IGROV-1 = assay: Cytotoxicity against human IGROV1 cells at 10 uM after 48 hrs by SRB assay; type: functional; conditions: IGROV-1, 48 h, read-out: GI
NCI-H23 = assay: Cytotoxicity against human NCI-H23 cells at 10 uM after 48 hrs by SRB assay; type: functional; conditions: NCI-H23, 48 h, read-out: GI
SK-OV-3 = assay: Cytotoxicity against human SKOV3 cells at 10 uM after 48 hrs by SRB assay; type: functional; conditions: SK-OV-3, 48 h, read-out: GI
MDA-MB-468 = assay: Cytotoxicity against human MDA-MB-468 cells at 10 uM after 48 hrs by SRB assay; type: functional; conditions: MDA-MB-468, 48 h, read-out: GI
HOP-62 = assay: Cytotoxicity against human HOP62 cells at 10 uM after 48 hrs by SRB assay; type: functional; conditions: HOP-62, 48 h, read-out: GI
RXF 393 = assay: Cytotoxicity against human RXF393 cells at 10 uM after 48 hrs by SRB assay; type: functional; conditions: RXF 393, 48 h, read-out: GI
MDA-MB-435 = assay: Cytotoxicity against human MDA-MB-435 cells at 10 uM after 48 hrs by SRB assay; type: functional; conditions: MDA-MB-435, 48 h, read-out: GI
SF-539 = assay: Cytotoxicity against human SF539 cells at 10 uM after 48 hrs by SRB assay; type: functional; conditions: SF-539, 48 h, read-out: GI
SNB-75 = assay: Cytotoxicity against human SNB75 cells at 10 uM after 48 hrs by SRB assay; type: functional; conditions: SNB-75, 48 h, read-out: GI
SK-MEL-5 = assay: Cytotoxicity against human SK-MEL-5 cells at 10 uM after 48 hrs by SRB assay; type: functional; conditions: SK-MEL-5, 48 h, read-out: GI
HCC 2998 = assay: Cytotoxicity against human HCC2998 cells at 10 uM after 48 hrs by SRB assay; type: functional; conditions: HCC 2998, 48 h, read-out: GI
A498 = assay: Cytotoxicity against human A498 cells at 10 uM after 48 hrs by SRB assay; type: functional; conditions: A498, 48 h, read-out: GI
MCF7 = assay: Cytotoxicity against human MCF7 cells at 10 uM after 48 hrs by SRB assay; type: functional; conditions: MCF7, 48 h, read-out: GI
786-0 = assay: Cytotoxicity against human 786-0 cells at 10 uM after 48 hrs by SRB assay; type: functional; conditions: 786-0, 48 h, read-out: GI
[1] = n-Octanol-phosphate buffer partition coefficient, log P of the compound at pH 7.4 by shake flask method; type: physicochemical
T47D = assay: Cytotoxicity against human T47D cells at 10 uM after 48 hrs by SRB assay; type: functional; conditions: read-out: GI
LOX IMVI = assay: Cytotoxicity against human LOXIMVI cells at 10 uM after 48 hrs by SRB assay; type: functional; conditions: read-out: GI
MOLT-4 = assay: Cytotoxicity against human MOLT4 cells at 10 uM after 48 hrs by SRB assay; type: functional; conditions: MOLT-4, 48 h, read-out: GI

C=CCn1c(C)nc2ccc(Nc3nc(N4CCN(C)CC4)nc4ccccc34)cc21
inhibition of growth at 10 µM (OVCAR-5): 16.5% | inhibition of growth at 10 µM (M14): < 10% | inhibition of growth at 10 µM (A549): < 10% | inhibition of growth at 10 µM (Hs-578T): 23.3% | inhibition of growth at 10 µM (SW-620): < 10% | inhibition of growth at 10 µM (OVCAR-3): < 10% | inhibition of growth at 10 µM (HCT-116): 33% | inhibition of growth at 10 µM (HL-60(TB)): < 10% | inhibition of growth at 10 µM (NCI-H522): < 10% | inhibition of growth at 10 µM (COLO 205): 23.6% | inhibition of growth at 10 µM (SNB-19): < 10% | inhibition of growth at 10 µM (SK-MEL-28): < 10% | inhibition of growth at 10 µM (UACC-62): < 10% | inhibition of growth at 10 µM (MDA-MB-231): 22.8% | inhibition of growth at 10 µM (SN12C): < 10% | inhibition of growth at 10 µM (UO-31): 34.2% | inhibition of growth at 10 µM (TK-10): < 10% | inhibition of growth at 10 µM (CAKI-1): 14.4% | inhibition of growth at 10 µM (NCI-H322M): < 10% | inhibition of growth at 10 µM (HOP-92): 42.4% | inhibition of growth at 10 µM (HCT-15): 10.1% | inhibition of growth at 10 µM (ACHN): < 10% | inhibition of growth at 10 µM (SF-295): < 10% | inhibition of growth at 10 µM (IGROV-1): < 10% | inhibition of growth at 10 µM (NCI-H23): 19.2% | inhibition of growth at 10 µM (SK-OV-3): < 10% | inhibition of growth at 10 µM (MDA-MB-468): < 10% | inhibition of growth at 10 µM (HOP-62): 11.3% | inhibition of growth at 10 µM (RXF 393): < 10% | inhibition of growth at 10 µM (MDA-MB-435): < 10% | inhibition of growth at 10 µM (SF-539): 23.5% | inhibition of growth at 10 µM (SNB-75): 17.6% | inhibition of growth at 10 µM (SK-MEL-5): 18.3% | inhibition of growth at 10 µM (HCC 2998): < 10% | inhibition of growth at 10 µM (A498): < 10% | inhibition of growth at 10 µM (MCF7): 14.4% | inhibition of growth at 10 µM (786-0): < 10% | logD [1]: 1.03 | inhibition of growth at 10 µM (T47D): 20.6% | inhibition of growth at 10 µM (LOX IMVI): 18% | inhibition of growth at 10 µM (MOLT-4): 43.1%
